90 molecules from PubChem BioAssay AID463074 (Broad Institute, 2010) can be followed below.

SMILES strings stand for the structures. Calls of active or inactive are those of the source.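 The calls were made as follows: active = AC50 no more than tenfold above the top dose tested, or full inhibition at every dose with a flat fit (cut at about 19 µM in these data); inconclusive = flat curve fit with inhibition between 30% and 70%, or poor fit; inactive = AC50 more than tenfold above the top dose tested.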

The subject of this test is HMLE_sh_eGFP viability, CellTiter-Glo luminescence, 72 h. The test is described as follows: viability loss of HMLE_sh_eGFP cells – cell-based, luminescence, counter-screen for HMLE_sh_ECad selective toxicity project, dose response (AID 463074).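 Also: counterscreen control line to flag general toxicity for the HMLE_sh_ECad screen; potency for loss of viability as luminescence drops below DMSO wells.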 On the technique in general: The purpose of a counterscreen is to sort out artefacts and off-target activity.
The term AC50 denotes the concentration at which the activity in the assay is half-maximal. On to `CCCc1nc2ccccc2c(C(=O)OCC(=O)Nc2ccc(S(=O)(=O)N3CCOCC3)cc2)c1CC`, for which the AC50 is 5.86 µM.

For the molecule `O=C(Nc1ccc2c(c1)OCCO2)C(=O)c1c[nH]c2ccccc12`, the concentration at half-maximal activity (AC50) is 1.85 µM.

`Cc1c(C2(O)CCCCC2)[nH]c2ccc(C(F)(F)F)cc12`: the concentration at half-maximal activity (AC50) is 6.11 µM.

Regarding `Cc1nnc2sc(SCc3cccc(Cl)c3)nn2c1=O`, the AC50 was > 19.5 µM (inactive).

Take `CCCCCCSc1nsc(NC(=O)CC(C)C)n1`: the concentration at half-maximal activity (AC50) is 9.2 µM.

In the case of `CCCS(=O)(=O)c1c(S(=O)(=O)CCC)c2c(C)cccn2c1C(=O)N/N=C/c1cc(O)cc(O)c1`, the AC50 is 1.72 µM.

Turning to `CC(C(=O)O)N1C(=O)CSc2ncccc21` (stereo not given), the AC50 was > 19.5 µM (inactive).

Turning to `CCCCNc1nc(Nc2ccc(C)c(Cl)c2)c2cnn(C)c2n1`, the concentration at half-maximal activity (AC50) was 11.5 µM.

On to `O=C(Nc1cccc(C(F)(F)F)c1)Nc1ccc(N2CCCC2)c(S(=O)(=O)Nc2ccccc2Cl)c1`, for which the concentration at half-maximal activity (AC50) was 1.33 µM.

On to `N#Cc1c(NC(=O)Cn2c(=O)oc3ccccc32)oc(-c2ccccc2)c1-c1ccccc1`, for which the AC50 is 4.24 µM.

`O=C(NC(NC(=S)Nc1cccc(Cl)c1)C(Cl)(Cl)Cl)OCc1ccccc1` (stereo not given): the concentration at half-maximal activity (AC50) is 3.93 µM.

`Cc1ccc2nc(Cl)c3cc(C(=O)N(CCN(C)C)Cc4ccco4)sc3c2c1`: the half-maximal activity concentration (AC50) was 3.53 µM.

On to `COc1ccc2c(c1)-c1nc(NC(=O)c3cccs3)sc1CC2`, for which the AC50 was 11.3 µM.

Turning to `Cn1nnnc1Sc1ncnc2scc(-c3cccc(Br)c3)c12`, the AC50 is 3.14 µM.

`O=c1c2c3c(sc2nc(NCCO)n1Cc1ccco1)CCCCC3`: the concentration at half-maximal activity (AC50) is 2.01 µM.

Regarding `COc1ccccc1Nc1ccc(NC(=O)c2cccc([N+](=O)[O-])c2C)cc1`, the half-maximal activity concentration (AC50) was 3.82 µM.

For `COc1ccc(/C=C2/C(=O)N(c3nc4ccccc4s3)N=C2CSc2ccc(Cl)cc2)cc1`, the concentration at half-maximal activity (AC50) was 6.5 µM.

On to `CC(C)OC(=O)c1c2c(n3ccccc13)C(=O)c1ccccc1C2=O`, for which the AC50 was > 19.5 µM (inactive).

Consider `O=C(/C=C/c1ccc(Cl)c([N+](=O)[O-])c1)Nc1cccc(NC(=O)c2ccco2)c1`, for which the concentration at half-maximal activity (AC50) is 1.69 µM.

For `CNC(=S)N/N=C/c1cn(Cc2ccc(C)cc2)c2ccccc12`, the AC50 was 5.94 µM.

Turning to `Cc1ccc(Oc2c(C(N)=O)cc([N+](=O)[O-])cc2[N+](=O)[O-])cc1`, the concentration at half-maximal activity (AC50) was 3.84 µM.

For the molecule `CNC(CC(=O)c1ccc([N+](=O)[O-])cc1)C(Cl)(Cl)Cl` (stereo not given), the AC50 was 3.96 µM.

As for `Cc1oc(CC(C)C)cc1C(=O)Nc1cccc2ccccc12`, the concentration at half-maximal activity (AC50) is 5.98 µM.

For `CCOc1ccc(/C=N/NC(=O)COc2ccccc2-c2ccccc2)cc1`, the half-maximal activity concentration (AC50) was 6.53 µM.

As to `OC(CN1CCCCC1)Cn1c2ccc(Cl)cc2c2cc(Cl)ccc21` (stereo not given), the AC50 is 7.56 µM.

Turning to `Cc1cc(NC(=O)/C=C/c2ccc(Cl)cc2)no1`, the AC50 is > 19.5 µM (inactive).

Consider `CCCCCCCCNC(C)C(O)c1ccc(SC(C)C)cc1` (stereo not given), for which the half-maximal activity concentration (AC50) was 3.83 µM.

Take `O=C(NCc1cccnc1)/C(=C/c1ccc(-c2cccc(Cl)c2)o1)S(=O)(=O)c1ccccc1`: the concentration at half-maximal activity (AC50) is 2.66 µM.

With `CCOC(=O)c1ccc(NC(=O)c2nc[nH]c2C(=O)NCCNC(=O)c2[nH]cnc2C(=O)Nc2ccc(C(=O)OCC)cc2)cc1`, the AC50 is 0.624 µM.

Regarding `Cn1c(O)c(/C=N/Nc2ccccc2)c(=O)n(C)c1=O`, the half-maximal activity concentration (AC50) was 4.08 µM.

`COc1cc(/C=C(\C#N)C(=O)NC2CCCCC2C)ccc1OS(=O)(=O)c1ccc(C)cc1` (stereo not given): the AC50 is 6.69 µM.

As to `O=c1cc(N2CCCCC2)c(-c2ccccc2)nn1Cc1ccccc1`, the half-maximal activity concentration (AC50) was 12 µM.

`O=c1cc(C(F)(F)F)[nH]c2c(OC(F)(F)F)cccc12`: the AC50 was > 19.5 µM (inactive).

For the molecule `N#CC1=C(SCC(=O)c2ccc(Br)cc2)NC2=C(C(=O)CCC2)C1c1ccco1` (stereo not given), the half-maximal activity concentration (AC50) was 2.21 µM.

Take `COCC(C)NC(=O)NC1(C(F)(F)F)Oc2ccc(Cl)cc2O1` (stereo not given): the AC50 was 18.3 µM.

For `COC(=O)C1=C(C)N(Cc2ccccc2)C(=NCCc2c[nH]c3ccccc23)N[C@H]1c1cccc(F)c1`, the concentration at half-maximal activity (AC50) was 7.06 µM.

Take `O=C(CSCc1cccc(Br)c1)N/N=C/c1ccc2c(c1)OCO2`: the AC50 was 5.34 µM.

As for `CCCCC(=O)NC(c1ccco1)c1cc(Cl)c2cccnc2c1O` (stereo not given), the half-maximal activity concentration (AC50) was 5.79 µM.

`CN1CCN(c2ccc([N+](=O)[O-])c(NCc3ccco3)c2)CC1`: the concentration at half-maximal activity (AC50) is 12.9 µM.

As for `O=C(NNC1=C(C(=O)C(F)(F)F)CCC1)c1ccc(Br)cc1`, the AC50 is 3.6 µM.

Take `CC1(c2ccc(O)cc2)NC(=O)N(c2ccccc2)N1` (stereo not given): the AC50 is 8.69 µM.

Regarding `CCc1ccc(CNC(=O)C2CCN(c3nnc(C)c4c(C)n(-c5ccc(C)cc5)nc34)CC2)cc1`, the AC50 was 4.14 µM.

Consider `CN1CCN(C2Cc3ccccc3Sc3cc(C(F)(F)F)ccc32)CC1` (stereo not given), for which the AC50 is 6.9 µM.

Turning to `CC1=C(C(=O)OC2CCCC2)C(c2coc3ccccc3c2=O)C2=C(CC(C)(C)CC2=O)N1` (stereo not given), the AC50 is > 19.5 µM (inactive).

Take `O=C(O)CCn1cc(/C=C/C(=O)c2ccc(Cl)cc2)c(-c2ccc(Br)cc2)n1`: the half-maximal activity concentration (AC50) was 7.09 µM.

In the case of `CC(NC(=O)C1CCC(C(=O)NC(C)c2ccccc2)CC1)c1ccccc1` (stereo not given), the AC50 is > 19.5 µM (inactive).

On to `CCOC(=O)Nc1ccc(Cc2ccncc2)cc1`, for which the AC50 was > 19.5 µM (inactive).

On to `CC1=C(C(=O)OC2CCCCC2)C(c2ccc(C)o2)C2=C(CC(C)(C)CC2=O)N1` (stereo not given), for which the half-maximal activity concentration (AC50) is 12.9 µM.

Turning to `O=C(NC(=S)Nc1ccc(N2CCCCC2)c(Cl)c1)c1cccs1`, the AC50 is 8.62 µM.

For the molecule `CCn1c(C)c(C)c2cc(C(=O)Nc3cccc(Cl)c3)ccc21`, the half-maximal activity concentration (AC50) was 4.05 µM.

Regarding `O=C(Nc1ccc(OCC(F)(F)C(F)F)c(C(F)(F)F)c1)c1ccc(Cl)cc1`, the AC50 was 3.19 µM.

For the molecule `NC(=O)c1cc([N+](=O)[O-])ccc1NCc1ccc(O)cc1`, the concentration at half-maximal activity (AC50) is 3.1 µM.

Consider `CC1CCCN(CCCOc2ccc(Br)cc2Cl)C1` (stereo not given), for which the concentration at half-maximal activity (AC50) was 8.36 µM.

For the molecule `O=C1C2C3C=CC(C3)C2C(=O)N1c1ccc(N2CCN(c3ccccn3)CC2)c([N+](=O)[O-])c1` (stereo not given), the half-maximal activity concentration (AC50) was 3.42 µM.

Regarding `N=c1c2c(ncn1Cc1ccco1)Oc1ccc3ccccc3c1C2c1ccccc1` (stereo not given), the concentration at half-maximal activity (AC50) is 4.5 µM.

Regarding `O=C(Nc1ccc(N2CCN(C(=O)c3cccs3)CC2)cc1)c1ccc([N+](=O)[O-])o1`, the AC50 is 1.87 µM.

As for `Cc1ccc(C)c(NC(=O)/C(C#N)=C/c2cn(CC(=O)NCc3ccco3)c3ccccc23)c1`, the AC50 is > 19.5 µM (inactive).

In the case of `COC(=O)c1ccc(/C=C/c2c(-c3ccc(OC)cc3)oc3ccccc23)cc1`, the AC50 is 5.95 µM.

Take `Cc1cc(C(=O)NNc2ccc(Cl)cc2)no1`: the AC50 was 1.37 µM.

As for `CC(=O)Nc1ccc(OCC(O)CN2CCN(c3ccc(C)c(Cl)c3)CC2)cc1` (stereo not given), the concentration at half-maximal activity (AC50) was 8.97 µM.

In the case of `c1ccc2c(-c3ccc(OCCN4CCCCC4)cc3)c(-c3ccsc3)sc2c1`, the AC50 is 2.72 µM.

Regarding `C/C(=N\Nc1cc(N2CCCCC2)nc(C)n1)c1ccc(Br)cc1`, the concentration at half-maximal activity (AC50) was 5.82 µM.

Regarding `CC(C)(C)c1cc(C(=O)NNc2cccc(Cl)c2)n(Cc2ccccc2)n1`, the AC50 was 2.07 µM.

Consider `COc1ccc(-c2sc3cc(OC)c(OC)cc3c2C#CC2(O)CCCCC2)cc1`, for which the half-maximal activity concentration (AC50) was 5.19 µM.

`COc1ccc(/C=N/OCC(=O)N2CC3(C)CC2CC(C)(C)C3)cc1` (stereo not given): the AC50 was 14.3 µM.

For `COc1ccc(C)cc1N1C(=N)/C(=C2/Nc3ccccc3S2)C(c2ccccc2)C1=O` (stereo not given), the AC50 was 17.8 µM.

Consider `Cc1ccc(C)c(NC(=S)NC(NC(=O)Cc2cccc3ccccc23)C(Cl)(Cl)Cl)c1` (stereo not given), for which the AC50 was 1.97 µM.

With `COc1ccc(Br)cc1C(C[N+](=O)[O-])c1c(N)n(C)c(=O)n(C)c1=O` (stereo not given), the AC50 is 4.93 µM.

`O=C1c2ccccc2NC(c2ccc(-c3ccc(Br)cc3)o2)N1O` (stereo not given): the AC50 is 5.06 µM.

For the molecule `O=C(Nc1cc(C(F)(F)F)ccc1N1CCCCC1)c1ccc(Br)o1`, the half-maximal activity concentration (AC50) was 8.32 µM.

On to `COc1ccc(N=N/C(=C\O)C(=O)c2cccs2)cc1`, for which the AC50 is 5.35 µM.

As for `CC1=NN(c2ccccc2)C(=O)/C1=C/c1c(O)n(-c2ccc(F)cc2)[nH]c1=O`, the AC50 is 15.8 µM.

`CCC(C)c1ccccc1NC(=O)COC(=O)c1ccc2[nH]c3c(c2c1)CCCC3` (stereo not given): the half-maximal activity concentration (AC50) is 3.4 µM.

Take `CC[C@H](C)[C@H]1O[C@]2(CC[C@@H]1C)C[C@@H]1C[C@@H](CC=C(C)[C@@H](O[C@H]3C[C@H](OC)[C@@H](O[C@H]4C[C@H](OC)[C@@H](O)[C@H](C)O4)[C@H](C)O3)[C@@H](C)C=CC=C3CO[C@@H]4[C@H](O)C(C)=C[C@@H](C(=O)O1)[C@]34O)O2`: the AC50 is 1.78 µM.

As to `COc1ccc(C(C)NCCC(c2ccc(OC(C)C)cc2)c2ccccc2OC)cc1` (stereo not given), the AC50 was 5.44 µM.

`Cc1cccc(C(=O)N/N=C/c2ccc(OC3CSC3)cc2)c1`: the AC50 was 2.73 µM.

As to `CCCC(=O)NC(=S)Nc1cccc(Cl)c1N1CCCC1`, the AC50 is 4.25 µM.

For the molecule `O=S(=O)(Nc1ccc(-c2csc(-c3ccccc3)n2)cc1)c1ccccc1`, the AC50 is 5.92 µM.

As to `COc1ccc(CCNc2cc(C)nc3c(-c4ccc(Cl)cc4)c(C)nn23)cc1OC`, the half-maximal activity concentration (AC50) was 3.62 µM.

Take `Cc1cccc2c1NC(=O)/C2=C\C(=O)c1cccs1`: the AC50 was 6.66 µM.

Turning to `Cc1ccc(-n2nnnc2SC(C(=O)c2c[nH]c3ccccc23)c2ccccc2)cc1` (stereo not given), the AC50 was 3.21 µM.

Turning to `CCOc1cc(/C=N/O)cc(Br)c1OCc1ccc(Cl)cc1`, the AC50 is 5.69 µM.

As to `S=C(Nc1ccc(Oc2ccccc2)cc1)NC1CCCCCC1`, the AC50 is 4.84 µM.

`Cc1cccc(Nc2nc(N)c([N+](=O)[O-])c(N3CC(C)CC(C)C3)n2)c1` (stereo not given): the AC50 is 6.75 µM.

As for `Cc1ccc(C)c(NC(=O)c2ccccc2NS(=O)(=O)c2cc([N+](=O)[O-])ccc2C)c1`, the concentration at half-maximal activity (AC50) is 4.27 µM.

Turning to `CC(C)(C)OC(=O)NCc1ccc(NC(=O)c2nc[nH]c2C(=O)NCCCNC(=O)c2[nH]cnc2C(=O)Nc2ccc(CNC(=O)OC(C)(C)C)cc2)cc1`, the half-maximal activity concentration (AC50) was 1.92 µM.

For `CS(=O)(=O)c1ccc(C(=O)OCC(=O)NC23CC4CC(CC(C4)C2)C3)cc1[N+](=O)[O-]`, the AC50 was 2.39 µM.

As for `CCOC(=O)C1=C(N)Oc2cc(O)ccc2C1c1cccc(Cl)c1` (stereo not given), the concentration at half-maximal activity (AC50) was 4.06 µM.

For `OCCN1CCN(CCCN2c3ccccc3Sc3ccc(C(F)(F)F)cc32)CC1`, the AC50 was 4.67 µM.

Take `CC(=O)c1ccc(-c2ccc([C@H]3[C@@H]4C=CCC[C@@]4(C)C(=O)N3Cc3ccccc3)c(F)c2)cc1`: the concentration at half-maximal activity (AC50) was 4.17 µM.
